Entries after “also recorded” stand apart in the source; their conditions may differ.
Key:
Aβ plaques = test: In vitro autoradiography using postmortem brain section from Alzheimer's disease (Examples 14, 15); assay type: binding, human (Alzheimer's disease patient); details: brain section of Alzheimer's disease patient
Description: A postmortem autopsy brain tissue of a patient with Alzheimer's disease identified by postmortem dissection was obtained from Graduate School of Medicine, Kyoto University. The presence and location of senile plaques in the section were confirmed by immunohistochemical staining using an anti-Aβ1-42 antibody. The section was incubated together with [^18F]D1 or [^18F]D2 (0.37 MBq/100 μL) at room temperature for 1 hour. The resultant was immersed in a 50 volume % ethanol aqueous solution (2 minutes×2) and washed with water (2 minutes×2). After drying, the section was exposed to BAS imaging plate (from Fujifilm Corporation) for 1.5 hours. The image of autoradiography was obtained using BAS5000 scanner system (from Fujifilm Corporation).
A postmortem autopsy brain tissue of a patient with Alzheimer's disease identified by postmortem dissection was obtained from Graduate School of Medicine, Kyoto University, and serial sections […] of a paraffin-embedded brain tissue were used. First, they were each incubated with xylene (15 minutes×2), ethanol (1 minute×2), a 90 volume % ethanol aqueous solution (1 minute×2), and a 70 volume % ethanol aqueous solution (1 minute×1) in that order to perfectly perform deparaffinization, and then washed in water (2.5 minutes×2). Thereafter, for antibody recovery, the section was subjected to autoclave treatment for 15 minutes in 0.01 mol/L citrate buffer solution (pH 6.0). The resultant was incubated in PBS-Tween20 (5 minutes×2), and, for antibody recovery, incubated in a 90 volume % formic acid aqueous solution at room temperature for 5 minutes. The section was washed for 5 minutes with flowing tap water, and then incubated in PBS-Tween20 (2 minutes×1). The section was incubated with a mouse anti-Aβ1-42 monoclonal primary antibody (from Wako Pure Chemical Industries Ltd.) at room temperature overnight. The resultant was incubated in PBS-Tween20 (5 minutes×3) and then incubated together with biotin goat anti-mouse IgG (from Funakoshi Co., Ltd.) at room temperature for 1 hour. […]

[1] = In vivo radioactivity distribution experiment in normal mouse (Example 16); parameters: species or system ddY mice; details: for Radioactivity Amount, Blood / Radioactivity Amount, Bone / Radioactivity Amount, Brain / Radioactivity Amount, Heart / Radioactivity Amount, Intestine / Radioactivity Amount, Kidney / Radioactivity Amount, Liver / Radioactivity Amount, Lung / Radioactivity Amount, Pancreas / Radioactivity Amount, Spleen / Radioactivity Amount, Stomach*: normal ddY mice, tail vein, average for 5 mice (SD)
Description: An ethanol (10 μL)-containing saline solution of [^18F]D1 (25.8 kBq) or [^18F]D2 (48.2 kBq) (100 μL) was injected into the tail vein of ddY mice (male, 5-week old). Five mice were used for each group and sacrificed 2, 10, 30, and 60 minutes after administration to remove major organs. The blood and organs were weighed and further measured for radioactivity using a γ counter (Wallac 1470 Wizard 3, from Perkin-Elmer). The percent injected dose per organ was calculated by comparing tissue counts with suitably diluted aliquots of the injected material. The percent injected dose/g of each sample was calculated by comparing sample counts with the counts of the diluted initial dose.

In the case of “4-(6-(2-[^18F]Fluoroethoxy)quinoxalin-2-yl)-N-methylaniline [[^18F]D2]”, the “binding to / background in the white matter by autoradiography” value (Aβ plaques) is reported as “low degree of background in the white matter”, the “labeling of Aβ plaques by autoradiography” value (Aβ plaques; 0.37 MBq/100 μL, 1 hour) is reported as “provided a strong marker for Aβ plaques; also recorded: corresponded to the results of antibody immunohistochemical staining” and the “Radioactivity Amount, Blood” value ([1]; 2 min. after) is reported as 3.91 (0.22) % injected dose/g. The “Radioactivity Amount, Blood” value ([1]; 10 min. after) was 3.35 (0.43) % injected dose/g, the “Radioactivity Amount, Blood” value ([1]; 30 min. after) was 3.83 (0.18) % injected dose/g and the “Radioactivity Amount, Blood” value ([1]; 60 min. after) was 4.15 (0.31) % injected dose/g. For the same molecule, the “Radioactivity Amount, Bone” value ([1]; 2 min. after) was 2.81 (0.52) % injected dose/g, the “Radioactivity Amount, Bone” value ([1]; 10 min. after) was 2.12 (0.11) % injected dose/g and the “Radioactivity Amount, Bone” value ([1]; 30 min. after) was 2.86 (0.45) % injected dose/g. For the same molecule, the “Radioactivity Amount, Bone” value ([1]; 60 min. after) was 4.26 (0.29) % injected dose/g, the “Radioactivity Amount, Brain” value ([1]; 2 min. after) was 6.19 (0.30) % injected dose/g and the “Radioactivity Amount, Brain” value ([1]; 10 min. after) was 5.11 (0.28) % injected dose/g. The “Radioactivity Amount, Brain” value ([1]; 30 min. after) was 2.73 (0.16) % injected dose/g, the “Radioactivity Amount, Brain” value ([1]; 60 min. after) was 2.41 (0.12) % injected dose/g and the “Radioactivity Amount, Heart” value ([1]; 2 min. after) was 6.12 (0.45) % injected dose/g. The “Radioactivity Amount, Heart” value ([1]; 10 min. after) was 3.93 (0.40) % injected dose/g, the “Radioactivity Amount, Heart” value ([1]; 30 min. after) was 3.20 (0.32) % injected dose/g and the “Radioactivity Amount, Heart” value ([1]; 60 min. after) was 3.80 (0.22) % injected dose/g. For the same molecule, the “Radioactivity Amount, Intestine” value ([1]; 2 min. after) was 3.40 (0.34) % injected dose/g, the “Radioactivity Amount, Intestine” value ([1]; 10 min. after) was 8.06 (0.95) % injected dose/g and the “Radioactivity Amount, Intestine” value ([1]; 30 min. after) was 12.13 (2.05) % injected dose/g. For the same molecule, the “Radioactivity Amount, Intestine” value ([1]; 60 min. after) was 13.37 (1.03) % injected dose/g, the “Radioactivity Amount, Kidney” value ([1]; 2 min. after) was 9.86 (0.77) % injected dose/g and the “Radioactivity Amount, Kidney” value ([1]; 10 min. after) was 6.40 (0.62) % injected dose/g. For the same molecule, the “Radioactivity Amount, Kidney” value ([1]; 30 min. after) was 4.14 (0.31) % injected dose/g, the “Radioactivity Amount, Kidney” value ([1]; 60 min. after) was 3.08 (0.21) % injected dose/g and the “Radioactivity Amount, Liver” value ([1]; 2 min. after) was 8.81 (1.00) % injected dose/g. The “Radioactivity Amount, Liver” value ([1]; 10 min. after) was 9.29 (0.40) % injected dose/g, the “Radioactivity Amount, Liver” value ([1]; 30 min. after) was 7.07 (0.19) % injected dose/g and the “Radioactivity Amount, Liver” value ([1]; 60 min. after) was 6.10 (0.41) % injected dose/g. For the same molecule, the “Radioactivity Amount, Lung” value ([1]; 2 min. after) was 8.13 (1.13) % injected dose/g, the “Radioactivity Amount, Lung” value ([1]; 10 min. after) was 5.10(0.74) % injected dose/g and the “Radioactivity Amount, Lung” value ([1]; 30 min. after) was 3.94 (0.33) % injected dose/g. The “Radioactivity Amount, Lung” value ([1]; 60 min. after) was 3.92 (0.11) % injected dose/g, the “Radioactivity Amount, Pancreas” value ([1]; 2 min. after) was 6.47 (0.75) % injected dose/g and the “Radioactivity Amount, Pancreas” value ([1]; 10 min. after) was 3.88 (0.52) % injected dose/g. For the same molecule, the “Radioactivity Amount, Pancreas” value ([1]; 30 min. after) was 2.72 (0.29) % injected dose/g, the “Radioactivity Amount, Pancreas” value ([1]; 60 min. after) was 2.64 (0.34) % injected dose/g and the “Radioactivity Amount, Spleen” value ([1]; 2 min. after) was 3.14 (0.55) % injected dose/g. The “Radioactivity Amount, Spleen” value ([1]; 10 min. after) was 3.76 (0.55) % injected dose/g, the “Radioactivity Amount, Spleen” value ([1]; 30 min. after) was 3.07 (0.32) % injected dose/g and the “Radioactivity Amount, Spleen” value ([1]; 60 min. after) was 2.99 (0.21) % injected dose/g. For the same molecule, the “Radioactivity Amount, Stomach*” value ([1]; 2 min. after) was 1.32 (0.21) % injected dose per organ, the “Radioactivity Amount, Stomach*” value ([1]; 10 min. after) was 1.86 (0.38) % injected dose per organ and the “Radioactivity Amount, Stomach*” value ([1]; 30 min. after) was 2.44 (0.62) % injected dose per organ. The “Radioactivity Amount, Stomach*” value ([1]; 60 min. after) was 2.00 (0.76) % injected dose per organ.

For `Nc1ccc(-c2cnc3cc(OCC[18F])ccc3n2)cc1` [[^18F]D1, 4-(6-(2-[^18F]Fluoroethoxy)quinoxalin-2-yl)aniline], the “binding to / background in the white matter by autoradiography” value (Aβ plaques) was “high non-specific binding to the white matter”, the “Radioactivity Amount, Liver” value ([1]; 2 min. after) was 5.30 (1.33) % injected dose/g and the “Radioactivity Amount, Liver” value ([1]; 10 min. after) was 6.58 (0.47) % injected dose/g. For the same molecule, the “Radioactivity Amount, Liver” value ([1]; 30 min. after) was 4.90 (0.29) % injected dose/g, the “Radioactivity Amount, Liver” value ([1]; 60 min. after) was 4.88 (0.30) % injected dose/g and the “amount of radioactivity in the brain” value ([1]; mouse, in vivo) was 2.41-3.08 % ID/g.
